Measured values reported in patent US4381303A, “1,4,9,10-Tetrahydro-pyrazolo [4,3-]pyrido[-3,2-b][1,4]diazepin-10-ones” (Dr. Karl Thomae GmbH, priority 1981, dated 1983).

Tests used:
[1] = test system: Sensitivity of the Mouse in the Hot Plate Test; test: Activity against the sensitivity of the mouse in the hot plate test (CHEN and BECKMAN); assay type: in vivo, mouse (male Chbb:NMRI (SPF)-mice); conditions: po, dose increasing time of reaction by 100%, hot plate 52° C., esophageal tube, 1% methyl cellulose, linear regression
Description: (§1) were tested with regard to analgesic activity in the rat, analgesic activity in the mouse, and acute toxicity in the mouse:
2. Activity against the Sensitivity of the Mouse in the Hot Plate Test
The test was performed according to the method described by CHEN and BECKMAN [Science, 113, 631 (1951)] in male Chbb:NMRI (SPF)-mice with an average weight of 20 grams.
The test substances were administered as trituration in 1% methyl cellulose (0.1 ml/10 gm of mouse) by means of an esophageal tube. Before treatment with the test substances, the animals were twice put on the hot plate at intervals of 30 to 120 minutes, whereby their individual times of reaction were measured. After treatment with a test substance, the times of reaction of the animals were again measured in intervals of 30 to 120 minutes.
From the average maximum increase of the time of reaction obtained after treatment with different doses, and after linear regression analysis according to LINDER, an ED100 dose was calculated. The ED100 dose is one which increased the time of reaction by 100%.

Acute toxicity in mice = assay type: in vivo; conditions: in vivo, po; mouse, esophageal tube, 1% methyl cellulose; deaths within 14 days; LITCHFIELD and WILCOXON
Description: as §1
(§2) 3. Acute Toxicity in Mice
(§3) The acute toxicity was determined in Chbb:NMRI (SPF)-mice of both sexes, having an average body weight of 20 grams. The test compounds were administered as a trituration in 1% methyl cellulose (0.2 ml/10 gm of animal) by means of an esophageal tube. The calculation of the LD50 values was effected according to the method of LITCHFIELD and WILCOXON [J. Pharmacol. Exp. Ther., 96, 99 (1949)], based upon the percentage of animals which died within 14 days after administration of different doses.

[2] = test system: Pain of Inflammation on the Back Paw of the Rat; test: Activity against the pain of inflammation on the back paw of the rat (RANDALL-SELITTO); assay type: in vivo, rat (male Chbb:THOM-rats); conditions: po, 1.5 h, dose at which pain threshold rises by 50% vs controls, esophageal tube, 1% methyl cellulose, 90 minutes after phlogistic, 90 minutes before determination, linear regression
Description: as §1
1. Activity against the Pain of Inflammation on the Back Paw of the Rat
The activity against the pain caused by inflammation was tested according to the method of RANDALL-SELITTO [Arch. Int. Pharmacodyn., 111, 409 (1957)]. Male Chbb:THOM-rats having body weights of from 100 to 130 grams received a subplantar injection of 0.1 ml of a suspension of 1,12 g of dry yeast in 18.9 ml of a 5.5% glucose solution into a back paw.
At 90 minutes after injection of the phlogistic, that is, ninety minutes before determination of the pain threshold, the animals received various doses of the test substances as a trituration in 1% methyl cellulose (1 ml/100 gm of animal) through an esophageal tube. Control animals received corresponding volumes of the vehicle. The pain threshold was determined in the rat in terms of the grams of bearing pressure on a paw, based on the weight of the animal.
From the pain threshold, measured according to the various doses of the test substance, and with linear regression analysis according to LINDER [Statistische Methoden, 4th ed., pp. 148-162, Birkhauser, Basel, 1964] an ED50 was determined. The ED50 dose is one in which the pain threshold rises by 50%, as compared to the controls.

Chbb:NMRI (SPF)-mice = test: Acute toxicity in mice; assay type: in vivo; conditions: dose 1000 mg/kg (footnote * of Table 3), mouse, esophageal tube, within 14 days
Description: as §1, §2, §3

SMILES | ED100 [1] [mg/kg] | LD50 at 336 h (Acute toxicity in mice) [mg/kg] | ED50 [2] [mg/kg] | animals died after administration of this dose (Chbb:NMRI (SPF)-mice)
Cc1nn(C)c2c1Nc1ncccc1NC2=O [A, 1,3-dimethyl-1,4,9,10-tetrahydro-pyrazolo[4,3-e]pyrido[3,2-b][1,4]diazepin-10-one] | 15 | 152 | 26 | –
Cc1nn(C)c2c1Nc1ncccc1N(C)C2=O [B, 1,4,9,10-tetrahydro-1,3,9-trimethyl-pyrazolo[4,3-e]pyrido[3,2-b][1,4]diazepin-10-one] | 30 | 175 | 11 | –
CCN1C(=O)c2c(c(C)nn2C)Nc2ncccc21 [C, 1,3-dimethyl-9-ethyl-1,4,9,10-tetrahydro-pyrazolo[4,3-e]pyrido[3,2-b][1,4]diazepin-10-one] | 28 | 171 | 28 | –
Cc1nn(C)c2c1N(C)c1ncccc1N(C)C2=O [D, 1,4,9,10-tetrahydro-1,3,4,9-tetramethyl-pyrazolo[4,3-e]pyrido[3,2-b][1,4]diazepin-10-one] | – | 225 | 7.4 | –
CCN1C(=O)c2c(c(C)nn2C)N(C)c2ncccc21 [E, 9-ethyl-1,4,9,10-tetrahydro-1,3,4-trimethyl-pyrazolo[4,3-e]pyrido[3,2-b][1,4]diazepin-10-one] | – | 202 | 5.9 | –
CCCCN1C(=O)c2c(c(C)nn2C)Nc2ncccc21 [F, 9-(n-butyl)-1,3-dimethyl-1,4,9,10-tetrahydro-pyrazolo[4,3-e]pyrido[3,2-b][1,4]diazepin-10-one] | 87 | > 1000 | 139 | 1 out of 8
